In PubChem BioAssay AID2060626 (Molecular Pharmacology Branch, DTP, NCI, 2025):
pIC50: −log10 of the molar value.

Test system: 168753-222-R-J1-PDC complex spheroid viability
Assay: Anticancer human tumor 168753-222-R-J1-PDC patient-derived bladder carcinoma cell line growth inhibition [CLK]
Settings: for pIC50: curve of first compound; for viability, T/C: stronger effect = lower value
Summary of the method: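 Multi-cell-type spheroids combined patient-derived tumor cells with HUVEC endothelial cells and human mesenchymal stem cells. Paired agents were dosed in half-log steps down from about clinical Cmax, or from 10 microM where Cmax was unknown.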

[1] = second compound 0.0316 µM, first compound 0.0316 µM
[2] = second compound 0.0316 µM, first compound 0.1 µM
[3] = second compound 0.0316 µM, first compound 0.316 µM
[4] = second compound 0.0316 µM, first compound 1 µM
[5] = second compound 0.0316 µM, first compound 3.16 µM
[6] = second compound 0.0316 µM, first compound 10 µM
[7] = second compound 0.1 µM, first compound 0.0316 µM
[8] = second compound 0.1 µM, first compound 0.1 µM
[9] = second compound 0.1 µM, first compound 0.316 µM
[10] = second compound 0.1 µM, first compound 1 µM
[11] = second compound 0.1 µM, first compound 3.16 µM
[12] = second compound 0.1 µM, first compound 10 µM
[13] = second compound 0.316 µM, first compound 0.0316 µM
[14] = second compound 0.316 µM, first compound 0.1 µM
[15] = second compound 0.316 µM, first compound 0.316 µM
[16] = second compound 0.316 µM, first compound 1 µM
[17] = second compound 0.316 µM, first compound 3.16 µM
[18] = second compound 0.316 µM, first compound 10 µM
[19] = second compound 1 µM, first compound 0.0316 µM
[20] = second compound 1 µM, first compound 0.1 µM
[21] = second compound 1 µM, first compound 0.316 µM
[22] = second compound 1 µM, first compound 1 µM
[23] = second compound 1 µM, first compound 3.16 µM
[24] = second compound 1 µM, first compound 10 µM
[25] = second compound 3.16 µM, first compound 0.0316 µM
[26] = second compound 3.16 µM, first compound 0.1 µM
[27] = second compound 3.16 µM, first compound 0.316 µM
[28] = second compound 3.16 µM, first compound 1 µM
[29] = second compound 3.16 µM, first compound 3.16 µM
[30] = second compound 3.16 µM, first compound 10 µM
[31] = second compound 10 µM, first compound 0.0316 µM
[32] = second compound 10 µM, first compound 0.1 µM
[33] = second compound 10 µM, first compound 0.316 µM
[34] = second compound 10 µM, first compound 1 µM
[35] = second compound 10 µM, first compound 3.16 µM
[36] = second compound 10 µM, first compound 10 µM
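Further: viability measured after seven days of drug exposure.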
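Wherever viability, T/C is given: luminescence signal used as surrogate for viable cell amount; 100% = DMSO vehicle control wells.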

SMILES: C=CC(=O)Nc1cc(Nc2nccc(-c3cn(C)c4ccccc34)n2)c(OC)cc1N(C)CCN(C)C + CN1CCN(c2cc(C(=O)Nc3cc4cc(-c5cnn(C)c5)ccc4cn3)ccn2)CC1
- pIC50 (second compound 0.0316 µM): < 6.52
- pIC50 (second compound 0.1 µM): 7.23
- pIC50 (second compound 0.316 µM): > 9.02
- pIC50 (second compound 1 µM): > 9.02
- pIC50 (second compound 3.16 µM): > 9.02
- pIC50 (second compound 10 µM): > 9.02
- viability, T/C (second compound 0.0316 µM, first compound 0.000949 µM): 117%
- viability, T/C (second compound 0.0316 µM, first compound 0.003 µM): 113%
- viability, T/C (second compound 0.0316 µM, first compound 0.00949 µM): 105%
- viability, T/C (second compound 0.0316 µM, first compound 0.03 µM): 114%
- viability, T/C (second compound 0.0316 µM, first compound 0.0949 µM): 103%
- viability, T/C (second compound 0.0316 µM, first compound 0.3 µM): 108%
- viability, T/C (second compound 0.1 µM, first compound 0.000949 µM): 65.7%
- viability, T/C (second compound 0.1 µM, first compound 0.003 µM): 71.8%
- viability, T/C (second compound 0.1 µM, first compound 0.00949 µM): 53.4%
- viability, T/C (second compound 0.1 µM, first compound 0.03 µM): 77%
- viability, T/C (second compound 0.1 µM, first compound 0.0949 µM): 21.2%
- viability, T/C (second compound 0.1 µM, first compound 0.3 µM): 54.9%
- viability, T/C (second compound 0.316 µM, first compound 0.000949 µM): 10.4%
- viability, T/C (second compound 0.316 µM, first compound 0.003 µM): 8.73%
- viability, T/C (second compound 0.316 µM, first compound 0.00949 µM): 9.29%
- viability, T/C (second compound 0.316 µM, first compound 0.03 µM): 6.59%
- viability, T/C (second compound 0.316 µM, first compound 0.0949 µM): 5.77%
- viability, T/C (second compound 0.316 µM, first compound 0.3 µM): 1.61%
- viability, T/C (second compound 1 µM, first compound 0.000949 µM): 0.14%
- viability, T/C (second compound 1 µM, first compound 0.003 µM): 0.17%
- viability, T/C (second compound 1 µM, first compound 0.00949 µM): 0.15%
- viability, T/C (second compound 1 µM, first compound 0.03 µM): 0.32%
- viability, T/C (second compound 1 µM, first compound 0.0949 µM): 0.13%
- viability, T/C (second compound 1 µM, first compound 0.3 µM): 0.91%
- viability, T/C (second compound 3.16 µM, first compound 0.000949 µM): 0.1%
- viability, T/C (second compound 3.16 µM, first compound 0.003 µM): 0.13%
- viability, T/C (second compound 3.16 µM, first compound 0.00949 µM): 0.21%
- viability, T/C (second compound 3.16 µM, first compound 0.03 µM): 0.09%
- viability, T/C (second compound 3.16 µM, first compound 0.0949 µM): 0.17%
- viability, T/C (second compound 3.16 µM, first compound 0.3 µM): 2.63%
- viability, T/C (second compound 10 µM, first compound 0.000949 µM): 0.15%
- viability, T/C (second compound 10 µM, first compound 0.003 µM): 0.28%
- viability, T/C (second compound 10 µM, first compound 0.00949 µM): 0.5%
- viability, T/C (second compound 10 µM, first compound 0.03 µM): 0.15%
- viability, T/C (second compound 10 µM, first compound 0.0949 µM): 0.27%
- viability, T/C (second compound 10 µM, first compound 0.3 µM): 0.37%

SMILES: CCCS(=O)(=O)Nc1ccc(F)c(C(=O)c2c[nH]c3ncc(-c4ccc(Cl)cc4)cc23)c1F + CN1CCN(c2cc(C(=O)Nc3cc4cc(-c5cnn(C)c5)ccc4cn3)ccn2)CC1
- pIC50 (second compound 0.0316 µM): < 5.00
- pIC50 (second compound 0.1 µM): 5.11
- pIC50 (second compound 0.316 µM): > 7.50
- pIC50 (second compound 1 µM): > 7.50
- pIC50 (second compound 3.16 µM): > 7.50
- pIC50 (second compound 10 µM): > 7.50
- viability, T/C [1]: 96.7%
- viability, T/C [2]: 116%
- viability, T/C [3]: 112%
- viability, T/C [4]: 122%
- viability, T/C [5]: 112%
- viability, T/C [6]: 59.5%
- viability, T/C [7]: 80.1%
- viability, T/C [8]: 94.7%
- viability, T/C [9]: 58.3%
- viability, T/C [10]: 88.5%
- viability, T/C [11]: 86.5%
- viability, T/C [12]: 41.5%
- viability, T/C [13]: 15.8%
- viability, T/C [14]: 17.8%
- viability, T/C [15]: 16%
- viability, T/C [16]: 14.7%
- viability, T/C [17]: 20.1%
- viability, T/C [18]: 22.1%
- viability, T/C [19]: 0.38%
- viability, T/C [20]: 0.46%
- viability, T/C [21]: 0.31%
- viability, T/C [22]: 0.33%
- viability, T/C [23]: 0.96%
- viability, T/C [24]: 2.48%
- viability, T/C [25]: 0.11%
- viability, T/C [26]: 1.81%
- viability, T/C [27]: 0.12%
- viability, T/C [28]: 0.11%
- viability, T/C [29]: 2.3%
- viability, T/C [30]: 1.36%
- viability, T/C [31]: 0.16%
- viability, T/C [32]: 2.21%
- viability, T/C [33]: 0.61%
- viability, T/C [34]: 0.3%
- viability, T/C [35]: 3.61%
- viability, T/C [36]: 3.12%

SMILES: CC(CO)NC(=O)c1cc(-c2ccc(Cl)cc2)nn(-c2cnn(C)c2)c1=O (stereo unspecified) + CNC(=O)c1ccc(Nc2nc(OC3CCCC3)c3c(-c4ccc5nc(C)oc5c4)c[nH]c3n2)c(OC)c1
- pIC50 (second compound 0.0316 µM): < 5.00
- pIC50 (second compound 0.1 µM): < 5.00
- pIC50 (second compound 0.316 µM): < 5.00
- pIC50 (second compound 1 µM): > 7.50
- pIC50 (second compound 3.16 µM): > 7.50
- pIC50 (second compound 10 µM): > 7.50
- viability, T/C [1]: 117%
- viability, T/C [2]: 99.4%
- viability, T/C [3]: 94.4%
- viability, T/C [4]: 97.2%
- viability, T/C [5]: 97.2%
- viability, T/C [6]: 88.2%
- viability, T/C [7]: 102%
- viability, T/C [8]: 99.6%
- viability, T/C [9]: 85.7%
- viability, T/C [10]: 96.7%
- viability, T/C [11]: 95%
- viability, T/C [12]: 85.1%
- viability, T/C [13]: 79.1%
- viability, T/C [14]: 76.8%
- viability, T/C [15]: 74.6%
- viability, T/C [16]: 77.2%
- viability, T/C [17]: 80.5%
- viability, T/C [18]: 66.8%
- viability, T/C [19]: 48.9%
- viability, T/C [20]: 51.3%
- viability, T/C [21]: 44%
- viability, T/C [22]: 32.6%
- viability, T/C [23]: 55.4%
- viability, T/C [24]: 53.1%
- viability, T/C [25]: 24.6%
- viability, T/C [26]: 37%
- viability, T/C [27]: 39.2%
- viability, T/C [28]: 28%
- viability, T/C [29]: 39.4%
- viability, T/C [30]: 35.2%
- viability, T/C [31]: 18.5%
- viability, T/C [32]: 26.8%
- viability, T/C [33]: 27.3%
- viability, T/C [34]: 22.2%
- viability, T/C [35]: 30%
- viability, T/C [36]: 27.7%
